Results taken from patent publication US8748415B2 (priority 2011, dated 2014).

System: recombinant NL4-3 virus (Renilla luciferase in nef, Gag P373S)
Experiment: HIV cell culture assay (luciferase activity in MT-2 cells infected with NLRluc recombinant virus)
Assay type: cell-based
Settings: NL43, MT-2 cells infected 4-5 days with NLRluc recombinant virus
Summary of the method: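 Activity was read as luciferase output (Dual Luciferase reagents premixed with lysis solution) after 4–5 days of infection in serially diluted inhibitor. Host cells were MT-2 in 10% FBS RPMI. The reporter virus came from transfected 293T cells and was titered on MT-2.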

SMILES: C=C(C)[C@@H]1CC[C@]2(CNCCC(=O)N3CCOCC3)CC[C@]3(C)[C@H](CC[C@@H]4[C@@]5(C)CC=C(c6ccc(C(=O)O)cc6)C(C)(C)[C@@H]5CC[C@]43C)[C@@H]12 [Example 107, 4-((1R,3aS,5aR,5bR,7aR,11aS,11bR,13aR,13bR)-5a,5b,8,8,11a-pentamethyl-3a-((3-morpholino-3-oxopropylamino)methyl)-1-(prop-1-en-2-yl)-2,3,3a,4,5,5a,5b,6,7,7a,8,11,11a,11b,12,13,13a,13b-octadecahydro-1H-cyclopenta[a]chrysen-9-yl)benzoic acid]
- EC50 (class symbol): < 100 nM

SMILES: C=C(C)[C@@H]1CC[C@]2(CNCC(=O)N3CCS(=O)(=O)CC3)CC[C@]3(C)[C@H](CC[C@@H]4[C@@]5(C)CC=C(c6ccc(C(=O)O)cc6)C(C)(C)[C@@H]5CC[C@]43C)[C@@H]12 [Example 108, 4-((1R,3aS,5aR,5bR,7aR,11aS,11bR,13aR,13bR)-3a-(((2-(1,1-dioxido-4-thiomorpholinyl)-2-oxoethyl)amino)methyl)-1-isopropenyl-5a,5b,8,8,11a-pentamethyl-2,3,3a,4,5,5a,5b,6,7,7a,8,11,11a,11b,12,13,13a,13b-octadecahydro-1H-cyclopenta[a]chrysen-9-yl)benzoic acid]
- EC50 (class symbol): < 100 nM

SMILES: C=C(C)[C@@H]1CC[C@]2(CNCC(=O)N3CCCC3)CC[C@]3(C)[C@H](CC[C@@H]4[C@@]5(C)CC=C(c6ccc(C(=O)O)cc6)C(C)(C)[C@@H]5CC[C@]43C)[C@@H]12 [Example 109, 4-((1R,3aS,5aR,5bR,7aR,11aS,11bR,13aR,13bR)-5a,5b,8,8,11a-pentamethyl-3a-((2-oxo-2-(pyrrolidin-1-yl)ethylamino)methyl)-1-(prop-1-en-2-yl)-2,3,3a,4,5,5a,5b,6,7,7a,8,11,11a,11b,12,13,13a,13b-octadecahydro-1H-cyclopenta[a]chrysen-9-yl)benzoic acid]
- EC50 (class symbol): < 100 nM

SMILES: C=C(C)[C@@H]1CC[C@]2(CNCC(=O)N3CCCCC3)CC[C@]3(C)[C@H](CC[C@@H]4[C@@]5(C)CC=C(c6ccc(C(=O)O)cc6)C(C)(C)[C@@H]5CC[C@]43C)[C@@H]12 [Example 110, 4-((1R,3aS,5aR,5bR,7aR,11aS,11bR,13aR,13bR)-5a,5b,8,8,11a-pentamethyl-3a-((2-oxo-2-(piperidin-1-yl)ethylamino)methyl)-1-(prop-1-en-2-yl)-2,3,3a,4,5,5a,5b,6,7,7a,8,11,11a,11b,12,13,13a,13b-octadecahydro-1H-cyclopenta[a]chrysen-9-yl)benzoic acid]
- EC50 (class symbol): < 100 nM

SMILES: C=C(C)[C@@H]1CC[C@]2(CNCC(=O)N3CCC(C(=O)OCC)CC3)CC[C@]3(C)[C@H](CC[C@@H]4[C@@]5(C)CC=C(c6ccc(C(=O)O)cc6)C(C)(C)[C@@H]5CC[C@]43C)[C@@H]12 [Example 111, 4-((1R,3aS,5aR,5bR,7aR,11aS,11bR,13aR,13bR)-3a-((2-(4-(ethoxycarbonyl)piperidin-1-yl)-2-oxoethylamino)methyl)-5a,5b,8,8,11a-pentamethyl-1-(prop-1-en-2-yl)-2,3,3a,4,5,5a,5b,6,7,7a,8,11,11a,11b,12,13,13a,13b-octadecahydro-1H-cyclopenta[a]chrysen-9-yl)benzoic acid]
- EC50 (class symbol): < 100 nM

SMILES: C=C(C)[C@@H]1CC[C@]2(CNCC(=O)N3CCC(C(=O)O)CC3)CC[C@]3(C)[C@H](CC[C@@H]4[C@@]5(C)CC=C(c6ccc(C(=O)O)cc6)C(C)(C)[C@@H]5CC[C@]43C)[C@@H]12 [Example 112, 1-(2-(((1R,3aS,5aR,5bR,7aR,11aS,11bR,13aR,13bR)-9-(4-carboxyphenyl)-5a,5b,8,8,11a-pentamethyl-1-(prop-1-en-2-yl)-2,3,3a,4,5,5a,5b,6,7,7a,8,11,11a,11b,12,13,13a,13b-octadecahydro-1H-cyclopenta[a]chrysen-3a-yl)methylamino)acetyl)piperidine-4-carboxylic acid]
- EC50 (class symbol): < 100 nM

SMILES: C=C(C)[C@@H]1CC[C@]2(CNCC(=O)N3CCN(S(=O)(=O)N(C)C)CC3)CC[C@]3(C)[C@H](CC[C@@H]4[C@@]5(C)CC=C(c6ccc(C(=O)O)cc6)C(C)(C)[C@@H]5CC[C@]43C)[C@@H]12 [Example 113, 4-((1R,3aS,5aR,5bR,7aR,11aS,11bR,13aR,13bR)-3a-((2-(4-(N,N-dimethylsulfamoyl)piperazin-1-yl)-2-oxoethylamino)methyl)-5a,5b,8,8,11a-pentamethyl-1-(prop-1-en-2-yl)-2,3,3a,4,5,5a,5b,6,7,7a,8,11,11a,11b,12,13,13a,13b-octadecahydro-1H-cyclopenta[a]chrysen-9-yl)benzoic acid]
- EC50 (class symbol): < 100 nM

SMILES: C=C(C)[C@@H]1CC[C@]2(CNCC(=O)N3CCC[C@@H]3C(=O)O)CC[C@]3(C)[C@H](CC[C@@H]4[C@@]5(C)CC=C(c6ccc(C(=O)O)cc6)C(C)(C)[C@@H]5CC[C@]43C)[C@@H]12 [Example 114, (R)-1-(2-(((1R,3aS,5aR,5bR,7aR,11aS,11bR,13aR,13bR)-9-(4-carboxyphenyl)-5a,5b,8,8,11a-pentamethyl-1-(prop-1-en-2-yl)-2,3,3a,4,5,5a,5b,6,7,7a,8,11,11a,11b,12,13,13a,13b-octadecahydro-1H-cyclopenta[a]chrysen-3a-yl)methylamino)acetyl)pyrrolidine-2-carboxylic acid]
- EC50 (class symbol): < 100 nM

SMILES: C=C(C)[C@@H]1CC[C@]2(CNCC(=O)N3CCC(F)(F)CC3)CC[C@]3(C)[C@H](CC[C@@H]4[C@@]5(C)CC=C(c6ccc(C(=O)O)cc6)C(C)(C)[C@@H]5CC[C@]43C)[C@@H]12 [Example 115, 4-((1R,3aS,5aR,5bR,7aR,11aS,11bR,13aR,13bR)-3a-((2-(4,4-difluoropiperidin-1-yl)-2-oxoethylamino)methyl)-5a,5b,8,8,11a-pentamethyl-1-(prop-1-en-2-yl)-2,3,3a,4,5,5a,5b,6,7,7a,8,11,11a,11b,12,13,13a,13b-octadecahydro-1H-cyclopenta[a]chrysen-9-yl)benzoic acid]
- EC50 (numeric value): 3 nM

SMILES: C=C(C)[C@@H]1CC[C@]2(CNC3(C(=O)N4CCS(=O)(=O)CC4)CC3)CC[C@]3(C)[C@H](CC[C@@H]4[C@@]5(C)CC=C(c6ccc(C(=O)O)cc6)C(C)(C)[C@@H]5CC[C@]43C)[C@@H]12 [Example 116, 4-((1R,3aS,5aR,5bR,7aR,11aS,11bR,13aR,13bR)-3a-(((1-((1,1-dioxido-4-thiomorpholinyl)carbonyl)cyclopropyl)amino)methyl)-1-isopropenyl-5a,5b,8,8,11a-pentamethyl-2,3,3a,4,5,5a,5b,6,7,7a,8,11,11a,11b,12,13,13a,13b-octadecahydro-1H-cyclopenta[a]chrysen-9-yl)benzoic acid]
- EC50 (class symbol): < 100 nM

SMILES: C=C(C)[C@@H]1CC[C@]2(CNCCC(=O)N3CCC(F)(F)CC3)CC[C@]3(C)[C@H](CC[C@@H]4[C@@]5(C)CC=C(c6ccc(C(=O)O)cc6)C(C)(C)[C@@H]5CC[C@]43C)[C@@H]12 [Example 117, 4-((1R,3aS,5aR,5bR,7aR,11aS,11bR,13aR,13bR)-3a-((3-(4,4-difluoropiperidin-1-yl)-3-oxopropylamino)methyl)-5a,5b,8,8,11a-pentamethyl-1-(prop-1-en-2-yl)-2,3,3a,4,5,5a,5b,6,7,7a,8,11,11a,11b,12,13,13a,13b-octadecahydro-1H-cyclopenta[a]chrysen-9-yl)benzoic acid]
- EC50 (class symbol): < 100 nM

SMILES: C=C(C)[C@@H]1CC[C@]2(CNCCC(=O)N3CCS(=O)(=O)CC3)CC[C@]3(C)[C@H](CC[C@@H]4[C@@]5(C)CC=C(c6ccc(C(=O)O)cc6)C(C)(C)[C@@H]5CC[C@]43C)[C@@H]12 [Example 118, 4-((1R,3aS,5aR,5bR,7aR,11aS,11bR,13aR,13bR)-3a-(((3-(1,1-dioxido-4-thiomorpholinyl)-3-oxopropyl)amino)methyl)-1-isopropenyl-5a,5b,8,8,11a-pentamethyl-2,3,3a,4,5,5a,5b,6,7,7a,8,11,11a,11b,12,13,13a,13b-octadecahydro-1H-cyclopenta[a]chrysen-9-yl)benzoic acid]
- EC50 (class symbol): < 100 nM

SMILES: C=C(C)[C@@H]1CC[C@]2(CNCCC(=O)N3CCn4c(nnc4C(F)(F)F)C3)CC[C@]3(C)[C@H](CC[C@@H]4[C@@]5(C)CC=C(c6ccc(C(=O)O)cc6)C(C)(C)[C@@H]5CC[C@]43C)[C@@H]12 [Example 119]
- EC50 (class symbol): < 100 nM

SMILES: C=C(C)[C@@H]1CC[C@]2(CNCCC(=O)N3CCS(=O)(=O)C3)CC[C@]3(C)[C@H](CC[C@@H]4[C@@]5(C)CC=C(c6ccc(C(=O)O)cc6)C(C)(C)[C@@H]5CC[C@]43C)[C@@H]12 [Example 120, 4-((1R,3aS,5aR,5bR,7aR,11aS,11bR,13aR,13bR)-3a-(((3-(1,1-dioxido-1,3-thiazolidin-3-yl)-3-oxopropyl)amino)methyl)-1-isopropenyl-5a,5b,8,8,11a-pentamethyl-2,3,3a,4,5,5a,5b,6,7,7a,8,11,11a,11b,12,13,13a,13b-octadecahydro-1H-cyclopenta[a]chrysen-9-yl)benzoic acid]
- EC50 (class symbol): < 100 nM

SMILES: C=C(C)[C@@H]1CC[C@]2(CNCCC(=O)N3C[C@H]4CC[C@@H](C3)N4C)CC[C@]3(C)[C@H](CC[C@@H]4[C@@]5(C)CC=C(c6ccc(C(=O)O)cc6)C(C)(C)[C@@H]5CC[C@]43C)[C@@H]12 [Example 121, 4-((1R,3aS,5aR,5bR,7aR,11aS,11bR,13aR,13bR)-5a,5b,8,8,11a-pentamethyl-3a-((3-((1R,5S)-8-methyl-3,8-diazabicyclo[3.2.1]octan-3-yl)-3-oxopropylamino)methyl)-1-(prop-1-en-2-yl)-2,3,3a,4,5,5a,5b,6,7,7a,8,11,11a,11b,12,13,13a,13b-octadecahydro-1H-cyclopenta[a]chrysen-9-yl)benzoic acid]
- EC50 (class symbol): < 100 nM
